In ChEMBL document CHEMBL3046669, “Insecticide resistance of the oriental fruit fly, Bactrocera dorsalis (Hendel) (Diptera: Tephritidae), in mainland China” (2011):
Converted amounts (≈) assume the structure as drawn.

Legend:
Assay type in all cases: functional
Bactrocera dorsalis [1] = test: Insecticidal activity against adult Bactrocera dorsalis QY08 assessed as mortality after 24 hr; conditions: QY08, 24 h
Bactrocera dorsalis [2] = test: Insecticidal activity against adult Bactrocera dorsalis QY07 assessed as mortality after 24 hr; conditions: QY07, 24 h
Bactrocera dorsalis [3] = test: Resistance ratio of LC50 for adult Bactrocera dorsalis CS08 to LC50 for adult Bactrocera dorsalis after 24 hr
Bactrocera dorsalis [4] = test: Resistance ratio of LC50 for adult Bactrocera dorsalis MM07 to LC50 for adult Bactrocera dorsalis after 24 hr
Bactrocera dorsalis [5] = test: Insecticidal activity against adult Bactrocera dorsalis CH07 assessed as mortality after 24 hr; conditions: CH07, 24 h
Bactrocera dorsalis [6] = test: Insecticidal activity against adult Bactrocera dorsalis GZ08 assessed as mortality after 24 hr; conditions: GZ08, 24 h
Bactrocera dorsalis [7] = test: Insecticidal activity against adult Bactrocera dorsalis T-R-45 assessed as mortality
Bactrocera dorsalis [8] = test: Resistance ratio of LC50 for adult Bactrocera dorsalis FZ08 to LC50 for adult Bactrocera dorsalis after 24 hr
Bactrocera dorsalis [9] = test: Insecticidal activity against adult Bactrocera dorsalis HY08 assessed as mortality after 24 hr; conditions: HY08, 24 h
Bactrocera dorsalis [10] = test: Insecticidal activity against adult Bactrocera dorsalis MM08 assessed as mortality after 24 hr; conditions: MM08, 24 h
Bactrocera dorsalis [11] = test: Insecticidal activity against adult Bactrocera dorsalis YJ07 assessed as mortality after 24 hr; conditions: YJ07, 24 h
Bactrocera dorsalis [12] = test: Resistance ratio of LC50 for adult Bactrocera dorsalis HK07 to LC50 for adult Bactrocera dorsalis after 24 hr
Bactrocera dorsalis [13] = test: Resistance ratio of LC50 for adult Bactrocera dorsalis CH07 to LC50 for adult Bactrocera dorsalis after 24 hr
Bactrocera dorsalis [14] = test: Insecticidal activity against adult Bactrocera dorsalis HZ07 assessed as mortality after 24 hr; conditions: HZ07, 24 h
Bactrocera dorsalis [15] = test: Resistance ratio of LC50 for adult Bactrocera dorsalis QY08 to LC50 for adult Bactrocera dorsalis after 24 hr
Bactrocera dorsalis [16] = test: Insecticidal activity against adult Bactrocera dorsalis HY07 assessed as mortality after 24 hr; conditions: HY07, 24 h
Bactrocera dorsalis [17] = test: Insecticidal activity against adult Bactrocera dorsalis HK07 assessed as mortality after 24 hr; conditions: HK07, 24 h
Bactrocera dorsalis [18] = test: Resistance ratio of LC50 for adult Bactrocera dorsalis HZ07 to LC50 for adult Bactrocera dorsalis after 24 hr
Bactrocera dorsalis [19] = test: Resistance ratio of LC50 for adult Bactrocera dorsalis ZJ07 to LC50 for adult Bactrocera dorsalis after 24 hr
Bactrocera dorsalis [20] = test: Resistance ratio of LC50 for adult Bactrocera dorsalis GZ07 to LC50 for adult Bactrocera dorsalis after 24 hr
Bactrocera dorsalis [21] = test: Insecticidal activity against adult Bactrocera dorsalis T-R-48 assessed as mortality
Bactrocera dorsalis [22] = test: Insecticidal activity against adult Bactrocera dorsalis ZJ07 assessed as mortality after 24 hr; conditions: ZJ07, 24 h
Bactrocera dorsalis [23] = test: Resistance ratio of LC50 for adult Bactrocera dorsalis NN07 to LC50 for adult Bactrocera dorsalis after 24 hr
Bactrocera dorsalis [24] = test: Insecticidal activity against adult Bactrocera dorsalis HK08 assessed as mortality after 24 hr; conditions: HK08, 24 h
Bactrocera dorsalis [25] = test: Insecticidal activity against adult Bactrocera dorsalis NN07 assessed as mortality after 24 hr; conditions: NN07, 24 h
Bactrocera dorsalis [26] = test: Insecticidal activity against adult Bactrocera dorsalis HZ08 assessed as mortality after 24 hr; conditions: HZ08, 24 h
Bactrocera dorsalis [27] = test: Resistance ratio of LC50 for adult Bactrocera dorsalis WX08 to LC50 for adult Bactrocera dorsalis after 24 hr
Bactrocera dorsalis [28] = test: Resistance ratio of LC50 for adult Bactrocera dorsalis T-R-45 to LC50 for adult Bactrocera dorsalis
Bactrocera dorsalis [29] = test: Resistance ratio of LC50 for adult Bactrocera dorsalis YJ07 to LC50 for adult Bactrocera dorsalis after 24 hr
Bactrocera dorsalis [30] = test: Resistance ratio of LC50 for adult Bactrocera dorsalis YJ08 to LC50 for adult Bactrocera dorsalis after 24 hr
Bactrocera dorsalis [31] = test: Resistance ratio of LC50 for adult Bactrocera dorsalis GZ08 to LC50 for adult Bactrocera dorsalis after 24 hr
Bactrocera dorsalis [32] = test: Insecticidal activity against adult Bactrocera dorsalis MM07 assessed as mortality after 24 hr; conditions: MM07, 24 h
Bactrocera dorsalis [33] = test: Resistance ratio of LC50 for adult Bactrocera dorsalis T-R-48 to LC50 for adult Bactrocera dorsalis
Bactrocera dorsalis [34] = test: Insecticidal activity against adult Bactrocera dorsalis GZ07 assessed as mortality after 24 hr; conditions: GZ07, 24 h
Bactrocera dorsalis [35] = test: Insecticidal activity against adult Bactrocera dorsalis CS07 assessed as mortality after 24 hr; conditions: CS07, 24 h
Bactrocera dorsalis [36] = test: Insecticidal activity against adult Bactrocera dorsalis WX08 assessed as mortality after 24 hr; conditions: WX08, 24 h
Bactrocera dorsalis [37] = test: Insecticidal activity against adult Bactrocera dorsalis assessed as mortality after 24 hr
Bactrocera dorsalis [38] = test: Resistance ratio of LC50 for adult Bactrocera dorsalis FZ07 to LC50 for adult Bactrocera dorsalis after 24 hr
Bactrocera dorsalis [39] = test: Insecticidal activity against adult Bactrocera dorsalis FZ08 assessed as mortality after 24 hr; conditions: FZ08, 24 h
Bactrocera dorsalis [40] = test: Resistance ratio of LC50 for adult Bactrocera dorsalis HY07 to LC50 for adult Bactrocera dorsalis after 24 hr
Bactrocera dorsalis [41] = test: Resistance ratio of LC50 for adult Bactrocera dorsalis WX07 to LC50 for adult Bactrocera dorsalis after 24 hr
Bactrocera dorsalis [42] = test: Insecticidal activity against adult Bactrocera dorsalis YJ08 assessed as mortality after 24 hr; conditions: YJ08, 24 h
Bactrocera dorsalis [43] = test: Insecticidal activity against adult Bactrocera dorsalis NN08 assessed as mortality after 24 hr; conditions: NN08, 24 h
Bactrocera dorsalis [44] = test: Insecticidal activity against adult Bactrocera dorsalis CH08 assessed as mortality after 24 hr; conditions: CH08, 24 h
Bactrocera dorsalis [45] = test: Resistance ratio of LC50 for adult Bactrocera dorsalis MM08 to LC50 for adult Bactrocera dorsalis after 24 hr
Bactrocera dorsalis [46] = test: Resistance ratio of LC50 for adult Bactrocera dorsalis HY08 to LC50 for adult Bactrocera dorsalis after 24 hr
Bactrocera dorsalis [47] = test: Resistance ratio of LC50 for adult Bactrocera dorsalis CH08 to LC50 for adult Bactrocera dorsalis after 24 hr
Bactrocera dorsalis [48] = test: Insecticidal activity against adult Bactrocera dorsalis CS08 assessed as mortality after 24 hr; conditions: CS08, 24 h
Bactrocera dorsalis [49] = test: Resistance ratio of LC50 for adult Bactrocera dorsalis CS07 to LC50 for adult Bactrocera dorsalis after 24 hr
Bactrocera dorsalis [50] = test: Resistance ratio of LC50 for adult Bactrocera dorsalis HZ08 to LC50 for adult Bactrocera dorsalis after 24 hr
Bactrocera dorsalis [51] = test: Resistance ratio of LC50 for adult Bactrocera dorsalis NN08 to LC50 for adult Bactrocera dorsalis after 24 hr
Bactrocera dorsalis [52] = test: Resistance ratio of LC50 for adult Bactrocera dorsalis QY07 to LC50 for adult Bactrocera dorsalis after 24 hr
Bactrocera dorsalis [53] = test: Insecticidal activity against adult Bactrocera dorsalis FZ07 assessed as mortality after 24 hr; conditions: FZ07, 24 h
Bactrocera dorsalis [54] = test: Insecticidal activity against adult Bactrocera dorsalis WX07 assessed as mortality after 24 hr; conditions: WX07, 24 h
Bactrocera dorsalis [55] = test: Resistance ratio of LC50 for adult Bactrocera dorsalis HK08 to LC50 for adult Bactrocera dorsalis after 24 hr

For `COP(=O)(OC)C(O)C(Cl)(Cl)Cl` (stereo not drawn) [TRICHLORFON], the LC50 (Bactrocera dorsalis [1]) was 11.8 µg/mL (≈ 45.8 µM), the LC50 (Bactrocera dorsalis [2]) was 18.5 µg/mL (≈ 71.9 µM) and the RatioLC50 (Bactrocera dorsalis [3]) was 17.56. For the same compound, the RatioLC50 (Bactrocera dorsalis [4]) was 17.78, the LC50 (Bactrocera dorsalis [5]) was 20.4 µg/mL (≈ 79.3 µM) and the LC50 (Bactrocera dorsalis [6]) was 14.2 µg/mL (≈ 55.3 µM). The LC90 (Bactrocera dorsalis [7]) was 322.86 µg/mL (≈ 1250 µM), the LC50 (Bactrocera dorsalis [7]; Bactrocera dorsalis, T-R-45) was 93.9 µg/mL (≈ 365 µM) and the RatioLC50 (Bactrocera dorsalis [8]) was 20.2. It also gave an LC50 (Bactrocera dorsalis [9]) of 34 µg/mL (≈ 132 µM), an LC50 (Bactrocera dorsalis [10]) of 113 µg/mL (≈ 439 µM) and an LC50 (Bactrocera dorsalis [11]) of 8.43 µg/mL (≈ 32.7 µM). For the same compound, the RatioLC50 (Bactrocera dorsalis [12]) was 8.77, the RatioLC50 (Bactrocera dorsalis [13]) was 12.71 and the LC50 (Bactrocera dorsalis [14]) was 26.8 µg/mL (≈ 104 µM). For the same compound, the RatioLC50 (Bactrocera dorsalis [15]) was 7.34, the LC50 (Bactrocera dorsalis [16]) was 41.4 µg/mL (≈ 161 µM) and the LC50 (Bactrocera dorsalis [17]) was 14.1 µg/mL (≈ 54.7 µM). The RatioLC50 (Bactrocera dorsalis [18]) was 16.72, the RatioLC50 (Bactrocera dorsalis [19]) was 18.51 and the RatioLC50 (Bactrocera dorsalis [20]) was 19.8. The LC90 (Bactrocera dorsalis [21]) was 635.27 µg/mL (≈ 2470 µM), the LC50 (Bactrocera dorsalis [21]; Bactrocera dorsalis, T-R-48) was 115 µg/mL (≈ 448 µM) and the LC50 (Bactrocera dorsalis [22]) was 29.7 µg/mL (≈ 115 µM). The RatioLC50 (Bactrocera dorsalis [23]) was 15.62, the LC50 (Bactrocera dorsalis [24]) was 2.21 µg/mL (≈ 8.58 µM) and the LC50 (Bactrocera dorsalis [25]) was 25.1 µg/mL (≈ 97.4 µM). It also gave an LC50 (Bactrocera dorsalis [26]) of 2.43 µg/mL (≈ 9.44 µM), a RatioLC50 (Bactrocera dorsalis [27]) of 14.13 and a RatioLC50 (Bactrocera dorsalis [28]) of 58.34. The RatioLC50 (Bactrocera dorsalis [29]) was 5.25, the RatioLC50 (Bactrocera dorsalis [30]) was 5.22 and the RatioLC50 (Bactrocera dorsalis [31]) was 8.87. For the same compound, the LC50 (Bactrocera dorsalis [32]) was 28.5 µg/mL (≈ 111 µM), the RatioLC50 (Bactrocera dorsalis [33]) was 71.58 and the LC50 (Bactrocera dorsalis [34]) was 31.8 µg/mL (≈ 123 µM). For the same compound, the LC50 (Bactrocera dorsalis [35]) was 27.2 µg/mL (≈ 106 µM), the LC50 (Bactrocera dorsalis [36]) was 22.7 µg/mL (≈ 88.1 µM) and the LC90 (Bactrocera dorsalis [37]) was 2.64 µg/mL (≈ 10.3 µM). It also gave an LC50 (Bactrocera dorsalis [37]; Bactrocera dorsalis, 24 h) of 1.61 µg/mL (≈ 6.25 µM), a RatioLC50 (Bactrocera dorsalis [38]) of 12.32 and an LC50 (Bactrocera dorsalis [39]) of 32.4 µg/mL (≈ 126 µM). It also gave a RatioLC50 (Bactrocera dorsalis [40]) of 25.79, a RatioLC50 (Bactrocera dorsalis [41]) of 19.46 and an LC50 (Bactrocera dorsalis [42]) of 8.38 µg/mL (≈ 32.6 µM). It also gave an LC50 (Bactrocera dorsalis [43]) of 11.9 µg/mL (≈ 46.1 µM), an LC50 (Bactrocera dorsalis [44]) of 28.7 µg/mL (≈ 112 µM) and a RatioLC50 (Bactrocera dorsalis [45]) of 70.45. For the same compound, the RatioLC50 (Bactrocera dorsalis [46]) was 21.19, the RatioLC50 (Bactrocera dorsalis [47]) was 17.91 and the LC50 (Bactrocera dorsalis [48]) was 28.2 µg/mL (≈ 110 µM). For the same compound, the RatioLC50 (Bactrocera dorsalis [49]) was 16.96, the RatioLC50 (Bactrocera dorsalis [50]) was 1.51 and the RatioLC50 (Bactrocera dorsalis [51]) was 7.39. The RatioLC50 (Bactrocera dorsalis [52]) was 11.53, the LC50 (Bactrocera dorsalis [53]) was 19.8 µg/mL (≈ 76.8 µM) and the LC50 (Bactrocera dorsalis [54]) was 31.2 µg/mL (≈ 121 µM). It also gave a RatioLC50 (Bactrocera dorsalis [55]) of 1.37.
